One block for each sequence: values may come before it. Where no end group is shown, it is not given here.
Columns and labels:
D-TNFR-1 CRD2 [1] = experiment: Mirror-image phage display against D-TNFR-1 CRD2; type: binding; conditions: after three rounds of biopanning, D-TNFR-1 CRD2 3 μg on streptavidin/neutravidin beads
Source text: The receptor mimic was subjected to mirror-image molecular screening as a means of seeking ligands that inhibit TNF-α binding. […] A D-peptide inhibitor could be potentially tested as a candidate against TNFR-1-related inflammatory diseases localized in the protease-rich gastrointestinal tract.[10b],[20] Consequently, the D-TNFR-1 CRD2 serves as a receptor mimic in mirror-image phage display (MIPD), a molecular screening technique that exploits the concept of reflection symmetry for the discovery of peptide ligands in opposite chirality.[5b] To conduct the experiment, D-TNFR-1 CRD2 was biotinylated at the C-terminus, immobilized onto streptavidin-coated beads, and subjected to phage display. Subsequently, bacteriophage libraries[21] consisted of the sequence format CX9C where X could be any canonical amino acid and terminal cysteine residues used for cyclization were tested. […] This was confirmed by an additional phage display experiment, in which the WLG motif was fixed in the format CX4WLGX2C.
The peptides were linked to the gene-3 coat protein (pIII) via a trialanine (Ala-Ala-Ala) spacer. Gel purified DNA encoding the libraries were ligated into the pCantab 5E phagemid vector, and transformed into chemically competent E. coli TG1. 20-fold excess of helper phage M13KO7 was used during rescue and amplification of the bacteriophages. […]

D-TNFR-1 CRD2 [2] = experiment: GCI (RAPID, repeated analyte pulses of increasing duration) of TCPB-E isomers on D-TNFR-1 CRD2; type: binding; conditions: fixed concentration of each conformer, D-TNFR-1 CRD2, blank subtracted
Experimental: (§1) Grating-coupled interferometry (GCI) experiments were performed on a Creoptix WAVEsystem using 4PCH-STA WAVE sensor chips (polycarboxylate surface, streptavidin coated) or 4PCH WAVE sensor chips (polycarboxylate surface) as indicated. Chips were first conditioned with borate buffer (0.1 M sodium borate, pH 9, 1 M Sodium chloride).
S4. Identification of active binding peptide conformer
Figure S4.1: Six possible conformers of TCPB, oxidized with either glutathione (TCPB-E-G) or cysteine […]
TCPB solution phase oxidation […]
form. In a 10 mL round bottomed flask, the peptide (50 μM) was dissolved in 5 mL of buffer (0.1 M phosphate, pH 6) containing 0.5 mM of either cystine or glutathione. The reaction mixtures were stirred for six hours at room temperature. Reaction completion was confirmed by LCMS, by taking 10 μL of reaction mixture and diluting with 90 μL of distilled water. The two disulfide bonded products for each cysteine and glutathione mixture were isolated by semi-preparative HPLC.
(§2) (1 picture or pasted object on this page, not shown here)
Figure S4.6: LCMS disulfide bond mapping of isolated TCPB-E peak i, oxidized with glutathione disulfide.
Lyophilized peptide was digested with chymotypsin (0.1 mg/mL) in phosphate buffer ( 0.1 M, pH 6) at room temperature for 12 hours. […]

D-TNFR-1 CRD2 [3] = experiment: GCI single-cycle binding of TCPB-E-C1 and -C4 isomers to D-TNFR-1 CRD2; conditions: single cycle of association and dissociation, 50 μM of each peptide conformer, blank subtracted
Experimental: as §1
Figure S4.10: Grating-coupled interferometry (GCI) analysis of TCPB-E-C1 and -C4 isomers binding to
D-TNFR-1 CRD2. A single cycle of association and dissociation were passed over the sensor surface, with
μM of each peptide conformer. Sensograms shown are blank subtracted (target flow cell - flow cell with 50
TCPB-E-C4. The TCPB-E-C1 conformer was thus identified as the active form of the TCPB peptide.
as §2

Sequence: CFHCIWLGDEC
phage display selection outcome, experiment 2 (D-TNFR-1 CRD2 [1]; CX4WLGX2C library): most abundant peptide sequence

sensor response/binding of TCPB-E isomers to D-TNFR-1 CRD2 (D-TNFR-1 CRD2 [3]): highest sensor response
Sequence: CFHCIWLGDEC (disulfide (positions not given here)) [TCPB, intramolecular disulfide bond between residues 4–11, cysteinylated at position 1]
sensor response with respect to concentration among TCPB-E isomers (D-TNFR-1 CRD2 [2]): highest sensor response

Sequence: CFHCVWLGMEC
phage display selection outcome, experiment 1 (D-TNFR-1 CRD2 [1]; CX9C library): enriched

From publication PMC10885103, “Deciphering the Synthetic and Refolding Strategy of a Cysteine-Rich Domain in the Tumor Necrosis Factor Receptor (TNF-R) for Racemic Crystallography Analysis and D-Peptide Ligand Discovery” (ACS Bio & Med Chem Au, 2023)
